In assay [1] the target is T1, human ALK2 (Homo sapiens, UniProt Q04771).
T1 sequence (Q04771 21-509): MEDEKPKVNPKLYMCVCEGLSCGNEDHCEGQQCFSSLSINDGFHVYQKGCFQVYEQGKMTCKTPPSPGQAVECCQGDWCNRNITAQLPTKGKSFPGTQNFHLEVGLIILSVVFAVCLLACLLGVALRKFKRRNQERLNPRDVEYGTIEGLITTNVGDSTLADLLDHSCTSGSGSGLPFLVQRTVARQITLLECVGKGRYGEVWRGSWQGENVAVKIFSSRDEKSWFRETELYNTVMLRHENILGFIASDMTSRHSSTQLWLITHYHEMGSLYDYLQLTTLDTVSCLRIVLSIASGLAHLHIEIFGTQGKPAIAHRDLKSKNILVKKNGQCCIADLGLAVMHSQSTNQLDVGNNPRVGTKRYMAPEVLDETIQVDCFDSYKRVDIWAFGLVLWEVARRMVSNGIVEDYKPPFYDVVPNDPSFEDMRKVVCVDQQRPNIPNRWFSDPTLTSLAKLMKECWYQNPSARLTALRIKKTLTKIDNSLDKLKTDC
As to the kind of experiment: Activin-Like Kinase 2 (ALK2) enzyme assay. Format: biochemical. The protocol:
Activin-Like Kinase 2 (ALK2) Enzyme Assay
Enzyme inhibitory activity was evaluated in a standard kinase enzyme assay by incubating human ALK2 with the protein substrate casein (1 mg/mL) and γ-^33ATP (10 μM) in the presence of various concentrations of test compounds (10 nM-100 μM). After 30 min the amount of ^33P-casein was determined.

In assay [2] the test system is NOD2 cellular signaling in HEK-Blue cells expressing human NOD2. Description: NOD2 cell signaling assay (HEK-Blue, NFkB-SEAP reporter, L18-MDP stimulated). As to conditions: read-out: IC50 (nM) HEKBlue RIPK2. Format: cell-based. The method, then:
NOD2 Cell Signaling Assay.
HEK-Blue cells expressing human NOD2 and NFkB-SAEP reporter (Invivogen) are seeded into 96 well clear plates at 7.5×10^3 cells per well in 100 μL of DMEM media supplemented with 10% FBS and 1% antibiotic-antimycotic mix. Cells are allowed to attach for 48 h in 5% CO2 tissue culture incubator at 37° C. On the morning of the experiment, media in the wells is replaced with 100 pt of HEK-Blue detection media (Invivogen). Cells are treated with the inhibitors, diluted in DMSO (0.5 μL per well) for 15 min in 5% CO2 tissue culture incubator at 37° C. After that, cells are stimulated by the addition of 1 ng/well L18-MDP (Invivogen). Cells are incubated in 5% CO2 tissue culture incubator at 37° C. for 8 h and absorbance, corresponding to the SEAP in the media, is determined in Wallac3V plate reader (Perkin Elmer). Inhibition, %=(1−((sample signal-unstimulated and DMSO treated cells)/(L18-MDP stimulated and DMSO treated cells−unstimulated and DMSO treated cells)))*100. IC50 values are calculated based on a dose range of inhibitor concentrations using non-linear regression in GraphPad Prism software.

The target of assay [3] is Recombinant RIPK2 protein (Homo sapiens, UniProt O43353). As to the kind of experiment: Receptor Interacting Protein Kinase 2 (RIPK2) enzyme assay (ADP-Glo). The class given is biochemical. The protocol: Receptor Interacting Protein Kinase 2 (RIPK2) Enzyme Assay
Recombinant RIPK2 protein, sequence (O43353 whole entry, species assumed): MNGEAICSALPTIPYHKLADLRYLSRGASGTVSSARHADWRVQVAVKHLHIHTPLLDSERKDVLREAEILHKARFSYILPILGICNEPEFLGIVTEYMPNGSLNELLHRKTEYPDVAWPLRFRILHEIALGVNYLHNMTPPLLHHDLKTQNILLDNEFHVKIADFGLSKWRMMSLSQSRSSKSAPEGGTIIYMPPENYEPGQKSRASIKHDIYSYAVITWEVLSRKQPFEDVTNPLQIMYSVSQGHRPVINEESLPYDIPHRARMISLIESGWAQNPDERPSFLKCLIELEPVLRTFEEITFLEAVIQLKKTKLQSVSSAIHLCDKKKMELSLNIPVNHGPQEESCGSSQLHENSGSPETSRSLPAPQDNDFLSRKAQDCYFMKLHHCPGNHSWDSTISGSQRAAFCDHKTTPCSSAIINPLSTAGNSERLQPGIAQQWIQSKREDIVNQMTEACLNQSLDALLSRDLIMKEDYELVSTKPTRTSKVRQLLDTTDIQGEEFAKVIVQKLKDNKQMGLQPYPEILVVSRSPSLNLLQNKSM
Recombinant RIPK2 protein (20 ng per reaction) is diluted in the reaction buffer consisting of 40 mM Tris (pH 7.5); 20 mM MgCl2; 0.1 mg/ml BSA; 50 μM DTT. Diluted protein is added to low volume white 384 well plates (2 μL/well). Inhibitors are diluted in reaction buffer (final 25% DMSO), 1 μL is added to each well and incubated 5 min at room temperature. Reactions are initiated by the addition of 2 μL of 100 μM ATP and 1 mg/ml RS repeat peptide (SignalChem) in the reaction buffer. Plates are sealed with plastic coverslips and incubated at room temperature for 2 h. Reactions are stopped by the addition of 5 μL of ADP-Glo reagent (Promega) and ADP generation reaction is performed for 40 min at room temperature. Luminescence signal is generated by the addition of 10 μL of Kinase detection reagent (Promega) for 30 min at room temperature Luminescence signals are determined using appropriate luminescence plate-reader (typical integration time 0.3-1 sec). To calculate percent inhibition, average background signal is subtracted from test well and maximal signal wells. Inhibition, %=(1−(test signal/maximal signal))*100. The percent inhibition at a specified concentration is determined or IC50 values are calculated based on a dose range of inhibitor concentrations using non-linear regression in GraphPad Prism software.
(In general: In ADP-Glo the light output rises with the ADP produced.)

Bounds are passed on as bounds.

The term IC50 denotes the midpoint of a concentration-inhibition curve. Take `CCCS(=O)(=O)Nc1cc(-c2cc(-c3ccc(N4CCNCC4)cc3)cnc2N)cc(C)c1OC` [CSLP42, N-(5-(2-Amino-5-(4-(piperazin-1-yl)phenyl)pyridin-3-yl)-2-methoxy-3-methylphenyl)propane-1-sulfonamide]: the IC50 in assay [1] was over 100 nM; in assay [2] it was over 100 nM; in assay [3] it was over 10 nM.

`CCCS(=O)(=O)Nc1cc(-c2cc(-c3ccc(N4CCNCC4)cc3)cnc2N)cc(OC)c1OC` [CSLP43, N-(5-(2-Amino-5-(4-(piperazin-1-yl)phenyl)pyridin-3-yl)-2,3-dimethoxyphenyl)propane-1-sulfonamide]: the IC50 in assay [1] was over 10 nM; in assay [2], over 1 nM; in assay [3], over 10 nM.

As for `CCCS(=O)(=O)Nc1cc(OC)cc(-c2cc(-c3cccc(S(C)(=O)=O)c3)cnc2N)c1` [CSLP44, N-(3-(2-Amino-5-(3-(methylsulfonyl)phenyl)pyridin-3-yl)-5-methoxyphenyl)propane-1-sulfonamide], the IC50 is over 100 nM in assay [1], over 1000 nM in assay [2] and over 10 nM in assay [3].

Regarding `CCCS(=O)(=O)Nc1cc(-c2cc(-c3ccc(N4CCNCC4)cc3)cnc2N)cc(C)c1C` [CSLP45, N-(5-(2-Amino-5-(4-(piperazin-1-yl)phenyl)pyridin-3-yl)-2,3-dimethylphenyl)propane-1-sulfonamide], the IC50 in assay [1], in assay [2] and in assay [3] was over 100 nM each time.

With `CCCS(=O)(=O)N1CCc2ccc(-c3cc(-c4ccc(N5CCNCC5)cc4)cnc3N)cc21` [CSLP46, 5-(4-(Piperazin-1-yl)phenyl)-3-(1-(propylsulfonyl)indolin-6-yl)pyridin-2-amine], the figures for the concentration for half-maximal inhibition (IC50) in assay [1], in assay [2] and in assay [3] were over 100000 nM, over 1000 nM and over 100 nM, respectively.

Turning to `CCCS(=O)(=O)N1CCOc2ccc(-c3cc(-c4ccc(N5CCNCC5)cc4)cnc3N)cc21` [CSLP47, 5-(4-(Piperazin-1-yl)phenyl)-3-(4-(propylsulfonyl)-3,4-dihydro-2H-benzo[b][1,4]oxazin-6-yl)pyridin-2-amine], the IC50 is over 100000 nM in assay [1], over 1000 nM in assay [2] and over 10 nM in assay [3].

`CCCS(=O)(=O)Nc1cc(-c2cc(-c3ccc(N4CCNCC4)cc3)cnc2N)ccc1O` [CSLP48, N-(5-(2-Amino-5-(4-(piperazin-1-yl)phenyl)pyridin-3-yl)-2-hydroxyphenyl)propane-1-sulfonamide]: the figures for the IC50 in assay [1], in assay [2] and in assay [3] were over 100 nM, over 1000 nM and over 10 nM, respectively.

As to `CCCS(=O)(=O)Nc1cc(-c2cc(-c3ccc(N4CCNCC4)cc3)cnc2N)cc(OCC)c1OCC` [CSLP49], the IC50 is over 100000 nM in assay [1], over 1000 nM in assay [2] and over 1000 nM in assay [3].

As to `COc1cc(-c2cc(-c3ccc(N4CCNCC4)cc3)cnc2N)cc(NS(=O)(=O)c2ccccc2)c1C` [CSLP51, N-(5-(2-Amino-5-(4-(piperazin-1-yl)phenyl)pyridin-3-yl)-3-methoxy-2-methylphenyl)benzenesulfonamide], the 50% inhibitory concentration (IC50) in assay [1], in assay [2] and in assay [3] was over 1000 nM each time.

With `CCCS(=O)(=O)Nc1cc(-c2cc(-c3ccc(N4CCNCC4)cc3)cnc2N)cc2c1OCCO2` [CSLP52, N-(7-(2-Amino-5-(4-(piperazin-1-yl)phenyl)pyridin-3-yl)-2,3-dihydrobenzo[b][1,4]dioxin-5-yl)propane-1-sulfonamide], the IC50 in assay [1] was over 100000 nM; in assay [2], over 1000 nM; in assay [3], over 100 nM.

For the compound `CCCS(=O)(=O)Nc1cc(-c2cc(-c3ccc(N4CCNCC4)cc3)cnc2C)cc(F)c1OC` [CSLP53, N-(3-Fluoro-2-methoxy-5-(2-methyl-5-(4-(piperazin-1-yl)phenyl)pyridin-3-yl)phenyl)propane-1-sulfonamide], the IC50 in assay [1] was over 100000 nM; in assay [2] it was over 1000 nM; in assay [3], over 1000 nM.

Consider `CCOc1cc(-c2cc(-c3ccc(N4CCNCC4)cc3)cnc2N)cc(NS(=O)(=O)Cc2ccccc2)c1C` [CSLP54, N-(5-(2-Amino-5-(4-(piperazin-1-yl)phenyl)pyridin-3-yl)-3-ethoxy-2-methylphenyl)-1-phenylmethanesulfonamide], for which the IC50 in assay [1], in assay [2] and in assay [3] was over 1000 nM throughout.

`CCCS(=O)(=O)Nc1cc(-c2cc(-c3ccc(N4CCNCC4)cc3)cnc2N)cc(OCC)c1OC` [CSLP56]: the half-inhibitory concentration (IC50) in assay [1] was over 100000 nM; in assay [2] it was over 1000 nM; in assay [3], over 1000 nM.

`CCCS(=O)(=O)N1CCOc2c(F)cc(-c3cc(-c4ccc(N5CCNCC5)cc4)cnc3N)cc21` [CSLP57, 3-(8-Fluoro-4-(propylsulfonyl)-3,4-dihydro-2H-benzo[b][1,4]oxazin-6-yl)-5-(4-(piperazin-1-yl)phenyl)pyridin-2-amine]: the IC50 in assay [1] is over 1000 nM; in assay [2], over 100 nM; in assay [3], over 100 nM.

Turning to `CCCS(=O)(=O)Nc1cc(-c2cc(-c3cccc(N4CCNCC4)c3)cnc2N)cc(F)c1OC` [CSLP58, N-(5-(2-Amino-5-(3-(piperazin-1-yl)phenyl)pyridin-3-yl)-3-fluoro-2-methoxyphenyl)propane-1-sulfonamide], the IC50 is over 100 nM in assay [1], over 10 nM in assay [2] and over 10 nM in assay [3].

The values are drawn from patent US11135209B2, “Compositions and methods for inhibiting protein kinases” (UNIVERSITY OF HOUSTON SYSTEM, priority 2017, dated 2021).
